The record followed here is US20170305882A1, “BENZYL SUBSTITUTED INDAZOLES AS BUB1 KINASE INHIBITORS” (Bayer Pharma Aktiengesellschaft, priority 2014, published 2017).

Data set [1] deals with histone 2A phosphorylation (kinase activity of Bub1). Nature of the data set: H2A Formation-Assay (cell-based mechanistic assay, co-treatment with Nocodazole). As to conditions: 16 h, read-out: Biological Assay 4.1: H2A Formation IC50.
For data set [2], the target named is T1, (recombinant) catalytic domain of human Bub1 (amino acids 704-1085) (Homo sapiens, UniProt O43683).
T1 construct: catalytic domain of human Bub1 (amino acids 704-1085); 6xHis (N); made in house; host or cells: Hi5 insect cells
Put plainly: Bub1 kinase assay (TR-FRET). In kind it is biochemical. In general terms: In TR-FRET formats the signal depends on donor and acceptor labels being close together.

Data set [3] has as its system HeLa human cervical tumor cells. Nature of the data set: Proliferation assay (HeLa cell line). In kind it is cell-based. As to conditions: 96 h, 4 days incubation, crystal violet, read-out: Biological Assay 2: Proliferation assay (HeLa cell line) median IC50. The text has this: Human tumour cells were originally obtained from the American Type Culture Collection (ATCC), the Deutsche Sammlung von Mikroorganismen und Zellkulturen (DSMZ, German Collection of Microorganisms and Cell Cultures), or Epo GmbH Berlin.

The subject of data set [4] is pre-induced phospho-histone 2A (kinase activity of Bub1). Put plainly: H2A Abrogation-Assay (cell-based mechanistic assay, pre-treatment with Nocodazole). Conditions: Nocodazole 16 h, then test compound 1 h; read-out: Biological Assay 4:2: H2A Abrogation IC50. The text has this:
Biological Assay 4.2: Abrogation-Assay
This assay measures the inhibition of histone 2A phosphorylation, which was induced by pre-treatment of the cells with Nocodazole, by a Bub1 kinase inhibitor.

Data set [5] concerns HeLa human cervical tumor cells. Nature of the data set: Proliferation Assay (HeLa + Paclitaxel). In kind it is cell-based. As to conditions: 3 nM paclitaxel, test substance 92 hours; read-out: Biological Assay 3: Proliferation Assay (HeLa + Paclitaxel) IC50. The text has this:
Proliferation Assay (HeLa+Paclitaxel):

A short description of data set [6]: Stability in buffer at various pH values (HPLC detection). Type of data set: physicochemical. As to the method: Stability in Buffer at Various pH Values (HPLC Detection)
0.3 mg of the test compound was solved in 0.1 ml dimethylsulfoxide and 0.4 ml acetonitrile. For complete dissolution the HPLC vial with the sample solution was sonified for about 20 seconds. Then 1.0 ml of the respective buffer solution was added and the sample was again treated in the ultrasonic bath.
Buffer Solutions Used: • pH 4.0: Fluka buffer, Order No. 33643 (11.76 g citric acid, 2.57 g sodium chloride and 2.72 g sodium hydroxide)
pH 7.4: 90 g of sodium chloride, 13.61 g of potassium dihydrogen phosphate and 83.35 g of 1 M sodium hydroxide solution were made up to 1 L with Millipore water and then diluted 1:10.
10 μl portions of the sample solution were analysed by HPLC at different times (0 h, 1 h, 2 h, 4 h and 24 h) at 37° C. The peak areas in percentage were used for quantification.
Agilent 1100 with DAD (G1315B), binary pump (G1312A), autosampler (G1329A), column oven (G1316A), thermostat (G1330B); column: Kromasil 100 C18, 250 mm×4 mm, 5 μm; column temperature: 37° C.; eluent A: water+5 ml of perchloric acid/litre, eluent B: acetonitrile.
The ratios of the peak area (F) at different times in relation to the peak area at the starting point are shown in Table 3 for representative examples: […]

For data set [7], the target named is T1, (recombinant) catalytic domain of human Bub1 (amino acids 704-1085). Nature of the data set: Equilibrium probe competition assay (TR-FRET kinase binding assay). As to conditions: read-out: IC50 (Assay 5, probe competition). The text has this:
Equilibrium Probe Competition Assay:
Bub1 binding affinity of compounds described in the present invention were quantified using a time-resolved fluorescence energy transfer (TR-FRET) kinase binding assay which measures displacement of the synthetic fluorescent probe 5-[({2-[2-({2-[1-(4-ethoxy-2,6-difluorobenzyl)-1H-indazol-3-yl]-4-(pyridin-4-ylamino)pyrimidin-5-yl}oxy)ethoxy]ethyl}carbamothioyl)amino]-2-(6-hydroxy-3-oxo-3H-xanthen-9-yl)benzoic acid (5-5-1) by the (recombinant) catalytic domain of human Bub1 (amino acids 704-1085). The enzyme was expressed in Hi5 insect cells with N-terminal 6×His/AviTag@ seqences, purified by affinity-(Ni-NTA) and size exclusion chromatography and site-specific biotinylated ex-vivo using a commercially available kit (Avidity).
In a typical assay 11 different concentrations of each compound (0.1 nM, 0.33 nM, 1.1 nM, 3.8 nM, 13 nM, 44 nM, ˜0.15 μM, ˜0.51 μM, ˜1.7 μM, 5.9 μM and 20 μM) were tested in duplicate within the same microtiter plate. To this end, 100-fold concentrated compound solutions (in DMSO) were made by serial dilution (1:3.4) of freshly prepared 2 mM stocks in a clear low volume 384-well source microtiter plate (Greiner Bio-One, Frickenhausen, Germany), from which 50 nl of compounds were transferred into a black low volume test microtiter plate from the same supplier. Subsequently 2 μL of a solution containing biotinylated Bub1 (the final concentration of Bub1 was adjusted depending on the activity of the enzyme lot in order to be within the linear dynamic range of the assay: typically ˜200 pM were used) and 1 nM Streptavidin Terbium Cryptate (Cisbio, No. 610SATLB) in aqueous assay buffer [50 mM Tris/HCl pH 7.5, 200 mM potassium chloride (KCl), 1.0 mM dithiothreitol (DTT), 0.1 mM sodium ortho-vanadate, 1% (v/v) glycerol, 0.01% (w/v) bovine serum albumine (BSA), 0.005% (v/v) Triton X-100 (Sigma), were added to the compounds in the test plate and the mixture was incubated for 15 min at 22′C to allow pre-equilibration of the putative enzyme-inhibitor complexes before the start of the probe competition reaction, which was initiated by the addition of 3 μL 1.67-fold concentrated solution (in assay buffer) of 5-5-1 (final concentration: 1.5 nM). The resulting mixture (5 μL final volume) was Incubated at 220 during 0, 15, 30, 60, 120, 240 and 1440 min. After each time point the resonance energy transfer from the Streptavidin Tb cryptate to the 3′,6′-dihydroxy-3H-spiro[2-benzofuran-1,9′-xanthen]-3-one moiety of 5-5-1 was measured in order to quantify the amount of fluorescent probe displaced by the test compounds. To this end, the fluorescence emissions at 520 nm and 490 nm after excitation at 330-350 nm were measured in a Pherastar FS TR-FRET plate reader, (BMG Lab technologies, Offenburg, Germany) and the ratio of the emissions (520 nm/490 nm) was taken as Indicator for the amount of Bub1/5-5-1 equilibrium complexes. The data were normalized using two sets of control wells for high-(=enzyme reaction without inhibitor=0%=Minimum inhibition) and low-(=all assay components without enzyme=100%=Maximum inhibition) Bub1 activity. IC50 values were calculated by fitting the normalized inhibition data to a 4-parameter logistic equation (Minimum, Maximum, IC50, Hill; Y=Max+(Min−Max)/(1+(X/IC50)Hill)).

[8] abbreviates: ATP 10 μM, 60 min reaction, pH 7.5, read-out: Biological Assay 1: Bub1 kinase assay median IC50.

Where a name gives a salt, the structure may show the parent alone.

As for `CCOc1cc(F)c(Cn2nc(-c3ncc(OCCCO)c(Nc4ccncc4C)n3)c3ccccc32)c(F)c1` [Example 2-1-2, 3-({2-[1-(4-ethoxy-2,6-difluorobenzyl)-1H-indazol-3-yl]-4-[(3-methylpyridin-4-yl)amino]pyrimidin-5-yl}oxy)propan-1-ol], the IC50 in data set [1] stood at 31 nM; in data set [2] (setting [8]) it was 10 nM; in data set [3], 3700 nM; in data set [4], 17 nM.
On to `CCOc1cc(F)c(Cn2nc(-c3ncc(OCCCO)c(Nc4cc(NC(C)=O)ncc4C)n3)c3ccccc32)c(F)c1` [Example 2-1-12, N-[4-({2-[1-(4-ethoxy-2,6-difluorobenzyl)-1H-indazol-3-yl]-5-(3-hydroxypropoxy)pyrimidin-4-yl}amino)-5-methylpyridin-2-yl]acetamide], for which, in data set [2] (setting [8]), the IC50 amounted to 35 nM.
For `CCOc1cc(F)c(Cn2nc(-c3ncc(OCCCO)c(Nc4cc(C)ncc4F)n3)c3ccccc32)c(F)c1` [Example 2-1-16, 3-({2-[1-(4-Ethoxy-2,6-difluorobenzyl)-1H-indazol-3-yl]-4-[(5-fluor-2-methylpyridin-4-yl)amino]pyrimidin-5-yl}oxy)propan-1-ol], the IC50 in data set [2] (setting [8]) was 16 nM.
`CCOc1cc(F)c(Cn2nc(-c3ncc(OCCCO)c(Nc4ccncc4OCC(F)(F)F)n3)c3ccccc32)c(F)c1` [Example 2-1-22, 3-[(2-[1-(4-ethoxy-2,6-difluorobenzyl)-1H-indazol-3-yl]-4-{[3-(2,2,2-trifluoroethoxy)pyridin-4-yl]amino}pyrimidin-5-yl)oxy]propan-1-ol]: the IC50 in data set [2] (setting [8]) was found to be 5.7 nM; in data set [5], 180 nM; in data set [3], 1390 nM.
For `Cc1cc(Nc2nc(-c3nn(Cc4c(F)cc(OCC5CC5)cc4F)c4ccccc34)ncc2OCCCO)c(C)cn1` [Example 2-1-23, 3-[(2-{1-[4-(cyclopropylmethoxy)-2,6-difluorobenzyl]-1H-indazol-3-yl}-4-[(2,5-dimethylpyridin-4-yl)amino]pyrimidin-5-yl)oxy]propan-1-ol] the same measures were 15 nM, 300 nM and 2320 nM.
Taken in the same sequence, the figures for `CC(=O)Nc1cc(Nc2nc(-c3nn(Cc4c(F)cc(OCC(F)(F)F)cc4F)c4ccccc34)ncc2OCCCO)ccn1` [Example 2-1-25, N-(4-{[2-{1-[2,6-difluoro-4-(2,2,2-trifluoroethoxy)benzyl]-1H-indazol-3-yl}-5-(3-hydroxypropoxy)pyrimidin-4-yl]amino}pyridin-2-yl)acetamide] were 19 nM, 200 nM and 1360 nM.
On to `COCCOc1cc(F)c(Cn2nc(-c3ncc(OCCCO)c(Nc4ccncn4)n3)c3ccccc32)c(F)c1` [Example 2-1-27, 3{[2-{1-[2,6-difluoro-4-(2-methoxyethoxy)benzyl]-1H-indazol-3-yl}-4-(pyrimidin-4-ylamino)pyrimidin-5-yl]oxy}propan-1-ol], for which the IC50 in data set [2] (setting [8]) is 4 nM.
Turning to `CCOc1cc(F)c(Cn2nc(-c3ncc(OCCCOC(=O)[C@H](C)NC(=O)[C@@H](N)CCCCN)c(Nc4ccncc4Cl)n3)c3ccccc32)c(F)c1` [Example 4-1-5, 3-({4-[(3-chloropyridin-4-yl)amino]-2-[1-(4-ethoxy-2,6-difluorobenzyl)-1H-indazol-3-yl]pyrimidin-5-yl}oxy)propyl L-lysyl-L-alaninate, salt with trifluoroaceticacid], the recovery at 60 min, 0.2 mg/mL in data set [6] (Time 60 min, read-out: Recovery (Assay 6, prodrug stability)) was 81%. Besides, the recovery at 120 min, 0.2 mg/mL in data set [6] (Time 120 min, read-out: Recovery (Assay 6, prodrug stability)) was 65%. Also, the recovery at 240 min, 0.2 mg/mL in data set [6] (Time 240 min, read-out: Recovery (Assay 6, prodrug stability)) is 42%. Besides, the recovery at 1440 min, 0.2 mg/mL in data set [6] (Time 1440 min, read-out: Recovery (Assay 6, prodrug stability)) was determined as 0%. For the same molecule, the “Stability pH4: % Test Compound after 4 h [F(t = 4 h) × 100/F(t = 0 h)]” value in data set [6] (pH 4, 4 h, 37° C., prodrug remaining) turned out to be 101%. Also, the “Stability pH7.4: % Test Compound after 4 h [F(t = 4 h) × 100/F(t = 0 h)]” value in data set [6] (pH 7.4, 4 h, 37° C., prodrug remaining) stood at 42%. The IC50 came to 1.5 nM in data set [7] (Time 15 min); 0.82 nM in data set [7] (Time 30 min); 0.6 nM in data set [7] (Time 60 min); 0.51 nM in data set [7] (Time 90 min); 0.46 nM in data set [7] (Time 120 min); 0.27 nM in data set [7] (Time 240 min). In addition, the IC50 in data set [7] (Time 1440 min) is 0.25 nM.
In the case of `CCOc1cc(F)c(Cn2nc(-c3ncc(OCCOCCNC(=S)Nc4ccc(-c5c6ccc(=O)cc-6oc6cc(O)ccc56)c(C(=O)O)c4)c(Nc4ccncc4)n3)c3ccccc32)c(F)c1` [Example 5-5-1, 5-[((2-[2-((2-[1-(4-ethoxy-2,6-difluorobenzyl)-1H-indazol-3-yl]-4-(pyridin-4-ylamino)pyrimidin-5-yl)oxy)ethoxy]ethyl)carbamothioyl)amino]-2-(6-hydroxy-3-oxo-3H-xanthen-9-yl)benzoic acid, reference compound], the IC50 in data set [2] (setting [8]) came out at 21 nM; in data set [2] (probe of the competition assay, read-out: inhibits the kinase activity of Bub1, IC50), 20.8 nM.
On to `CCOc1cc(F)c(Cn2nc(-c3ncc(OCCO)c(Nc4ccncc4)n3)c3ccccc32)c(F)c1` [Example 5-6-1, 2-({2-[1-(4-ethoxy-2,6-difluorobenzyl)-1H-indazol-3-yl]-4-(pyridin-4-ylamino)pyrimidin-5-yl}oxy)ethanol, reference compound], for which the IC50 in data set [1] was 1100 nM; in data set [5], 1400 nM.
